Source: PMC7714403 (JCI Insight, 2020)

How the values were obtained:
FGFR1 = target: T1, FGFR1 (Homo sapiens, UniProt P11362); assay: KdELECT binding assay
T1 construct: purchased Eurofins DiscoverX

RAF1 = RAF1 (Homo sapiens, UniProt P04049); assay: KiNativ, OCI cells live cell; type: cell-based; conditions: 2 h, labeling site Lys2, peptide […]
p70S6K = p70S6K (Homo sapiens, UniProt P23443); assay: KiNativ, OCI cells live cell; type: cell-based; conditions: 2 h, labeling site Lys2, peptide […]
GCK = target: T2, GCK (Homo sapiens, UniProt Q12851); assay: KdELECT binding assay; design: purchased Eurofins DiscoverX
T2 sequence (Q12851 1-820): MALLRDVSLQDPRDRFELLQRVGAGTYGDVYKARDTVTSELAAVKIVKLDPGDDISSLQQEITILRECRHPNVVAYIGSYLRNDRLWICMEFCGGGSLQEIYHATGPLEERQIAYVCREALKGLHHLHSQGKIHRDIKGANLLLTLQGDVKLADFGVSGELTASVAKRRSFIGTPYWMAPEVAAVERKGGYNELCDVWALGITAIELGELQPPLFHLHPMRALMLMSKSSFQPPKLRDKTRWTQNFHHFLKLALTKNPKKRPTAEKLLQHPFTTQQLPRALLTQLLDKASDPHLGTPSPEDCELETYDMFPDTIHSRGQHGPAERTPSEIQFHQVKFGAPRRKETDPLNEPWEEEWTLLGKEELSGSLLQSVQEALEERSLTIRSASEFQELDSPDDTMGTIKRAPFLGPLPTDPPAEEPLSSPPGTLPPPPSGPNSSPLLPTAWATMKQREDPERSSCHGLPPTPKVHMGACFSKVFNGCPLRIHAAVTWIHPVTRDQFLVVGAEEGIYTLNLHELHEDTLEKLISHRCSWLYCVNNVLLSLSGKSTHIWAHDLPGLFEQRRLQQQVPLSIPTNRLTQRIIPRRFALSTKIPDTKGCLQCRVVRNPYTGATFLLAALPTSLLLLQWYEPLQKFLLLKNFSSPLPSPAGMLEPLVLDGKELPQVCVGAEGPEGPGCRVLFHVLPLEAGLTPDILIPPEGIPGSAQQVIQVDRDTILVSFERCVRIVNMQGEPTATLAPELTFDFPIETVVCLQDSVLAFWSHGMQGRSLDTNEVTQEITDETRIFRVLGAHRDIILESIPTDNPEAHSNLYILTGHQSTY

LATS1 = target: T3, LATS1 (Homo sapiens, UniProt O95835); assay: KiNativ, OCI cells live cell; type: cell-based; conditions: 2 h
T3 sequence (O95835 1-1130): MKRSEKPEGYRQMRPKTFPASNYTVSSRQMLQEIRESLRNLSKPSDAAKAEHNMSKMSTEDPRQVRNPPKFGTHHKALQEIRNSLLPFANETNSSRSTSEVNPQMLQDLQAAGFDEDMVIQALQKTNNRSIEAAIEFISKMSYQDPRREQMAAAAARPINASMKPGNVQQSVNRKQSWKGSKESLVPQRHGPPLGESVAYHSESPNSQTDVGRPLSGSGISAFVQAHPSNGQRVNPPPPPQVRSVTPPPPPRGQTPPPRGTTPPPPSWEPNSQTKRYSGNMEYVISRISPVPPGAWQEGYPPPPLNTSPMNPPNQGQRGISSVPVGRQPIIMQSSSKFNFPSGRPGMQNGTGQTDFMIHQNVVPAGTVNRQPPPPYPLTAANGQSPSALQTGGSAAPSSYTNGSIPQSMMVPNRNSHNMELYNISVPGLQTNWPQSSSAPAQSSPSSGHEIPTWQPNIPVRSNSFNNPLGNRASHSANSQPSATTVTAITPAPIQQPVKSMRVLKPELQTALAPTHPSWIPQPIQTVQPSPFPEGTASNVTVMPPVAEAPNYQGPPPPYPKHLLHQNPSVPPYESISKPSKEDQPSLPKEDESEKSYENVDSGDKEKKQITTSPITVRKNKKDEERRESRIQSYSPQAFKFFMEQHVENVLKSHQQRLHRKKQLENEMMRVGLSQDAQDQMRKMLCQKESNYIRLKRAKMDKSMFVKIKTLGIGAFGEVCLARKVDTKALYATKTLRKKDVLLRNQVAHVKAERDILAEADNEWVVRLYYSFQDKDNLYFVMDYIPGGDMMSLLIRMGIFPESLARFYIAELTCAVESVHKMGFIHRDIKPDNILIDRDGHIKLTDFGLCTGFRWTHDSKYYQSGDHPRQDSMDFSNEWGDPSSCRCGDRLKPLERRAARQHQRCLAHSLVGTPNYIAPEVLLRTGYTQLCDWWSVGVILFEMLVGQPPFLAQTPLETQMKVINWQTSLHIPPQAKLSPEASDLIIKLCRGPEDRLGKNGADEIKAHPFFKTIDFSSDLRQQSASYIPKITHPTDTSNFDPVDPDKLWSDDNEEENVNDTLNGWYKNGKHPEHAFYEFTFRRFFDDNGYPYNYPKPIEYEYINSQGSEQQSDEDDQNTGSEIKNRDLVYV

ZAK = ZAK (Homo sapiens, UniProt Q9NYL2); assay: KiNativ, OCI cells live cell; type: cell-based; conditions: 2 h, labeling site Lys1, peptide […]
MAP4K3 = MAP4K3 (Homo sapiens, UniProt Q8IVH8); assay: KiNativ, OCI cells live cell; type: cell-based; conditions: labeling site Lys2, peptide DIKGANILLTDNGHVK
Chain of MAP4K3 (Q8IVH8 whole entry): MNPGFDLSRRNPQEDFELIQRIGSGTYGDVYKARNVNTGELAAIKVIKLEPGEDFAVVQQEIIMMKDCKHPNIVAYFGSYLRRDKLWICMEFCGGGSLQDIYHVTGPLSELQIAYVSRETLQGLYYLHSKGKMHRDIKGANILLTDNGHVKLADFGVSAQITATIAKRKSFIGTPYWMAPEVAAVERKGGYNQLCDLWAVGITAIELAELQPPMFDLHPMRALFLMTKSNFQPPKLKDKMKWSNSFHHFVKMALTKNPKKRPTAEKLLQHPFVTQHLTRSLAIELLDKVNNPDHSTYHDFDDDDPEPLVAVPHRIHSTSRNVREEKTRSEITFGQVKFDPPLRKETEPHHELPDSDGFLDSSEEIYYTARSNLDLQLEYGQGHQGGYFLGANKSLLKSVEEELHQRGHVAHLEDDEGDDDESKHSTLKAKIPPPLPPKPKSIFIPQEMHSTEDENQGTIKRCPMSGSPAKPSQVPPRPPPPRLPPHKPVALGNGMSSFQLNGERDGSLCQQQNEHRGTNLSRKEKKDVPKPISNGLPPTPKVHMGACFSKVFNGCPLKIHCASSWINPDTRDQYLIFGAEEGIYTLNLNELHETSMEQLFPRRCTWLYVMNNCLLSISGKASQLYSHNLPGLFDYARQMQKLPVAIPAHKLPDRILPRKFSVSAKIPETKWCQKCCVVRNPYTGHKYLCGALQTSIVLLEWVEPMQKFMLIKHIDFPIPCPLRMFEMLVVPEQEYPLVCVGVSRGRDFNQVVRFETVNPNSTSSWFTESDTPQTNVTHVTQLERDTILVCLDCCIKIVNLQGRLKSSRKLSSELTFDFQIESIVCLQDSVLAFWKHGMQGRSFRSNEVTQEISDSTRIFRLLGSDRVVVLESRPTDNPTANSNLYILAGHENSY

Chain of RAF1 (P04049 whole entry): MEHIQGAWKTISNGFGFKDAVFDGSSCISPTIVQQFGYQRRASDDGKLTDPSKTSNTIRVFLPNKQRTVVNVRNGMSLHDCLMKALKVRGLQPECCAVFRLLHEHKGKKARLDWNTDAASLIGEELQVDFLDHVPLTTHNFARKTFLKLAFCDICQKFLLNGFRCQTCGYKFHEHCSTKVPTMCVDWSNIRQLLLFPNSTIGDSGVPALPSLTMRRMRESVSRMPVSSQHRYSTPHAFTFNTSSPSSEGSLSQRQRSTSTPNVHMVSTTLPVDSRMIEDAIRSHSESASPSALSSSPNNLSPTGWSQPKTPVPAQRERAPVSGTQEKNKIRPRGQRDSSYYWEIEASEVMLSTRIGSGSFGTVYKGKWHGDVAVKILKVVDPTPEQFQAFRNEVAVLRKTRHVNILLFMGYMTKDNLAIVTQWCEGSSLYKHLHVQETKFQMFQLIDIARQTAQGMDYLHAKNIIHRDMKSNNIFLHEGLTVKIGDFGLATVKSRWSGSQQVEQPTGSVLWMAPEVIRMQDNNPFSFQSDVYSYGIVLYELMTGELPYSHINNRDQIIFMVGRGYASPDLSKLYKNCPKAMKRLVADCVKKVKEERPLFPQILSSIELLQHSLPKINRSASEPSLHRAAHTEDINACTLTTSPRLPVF
T1 sequence (P11362 22-822): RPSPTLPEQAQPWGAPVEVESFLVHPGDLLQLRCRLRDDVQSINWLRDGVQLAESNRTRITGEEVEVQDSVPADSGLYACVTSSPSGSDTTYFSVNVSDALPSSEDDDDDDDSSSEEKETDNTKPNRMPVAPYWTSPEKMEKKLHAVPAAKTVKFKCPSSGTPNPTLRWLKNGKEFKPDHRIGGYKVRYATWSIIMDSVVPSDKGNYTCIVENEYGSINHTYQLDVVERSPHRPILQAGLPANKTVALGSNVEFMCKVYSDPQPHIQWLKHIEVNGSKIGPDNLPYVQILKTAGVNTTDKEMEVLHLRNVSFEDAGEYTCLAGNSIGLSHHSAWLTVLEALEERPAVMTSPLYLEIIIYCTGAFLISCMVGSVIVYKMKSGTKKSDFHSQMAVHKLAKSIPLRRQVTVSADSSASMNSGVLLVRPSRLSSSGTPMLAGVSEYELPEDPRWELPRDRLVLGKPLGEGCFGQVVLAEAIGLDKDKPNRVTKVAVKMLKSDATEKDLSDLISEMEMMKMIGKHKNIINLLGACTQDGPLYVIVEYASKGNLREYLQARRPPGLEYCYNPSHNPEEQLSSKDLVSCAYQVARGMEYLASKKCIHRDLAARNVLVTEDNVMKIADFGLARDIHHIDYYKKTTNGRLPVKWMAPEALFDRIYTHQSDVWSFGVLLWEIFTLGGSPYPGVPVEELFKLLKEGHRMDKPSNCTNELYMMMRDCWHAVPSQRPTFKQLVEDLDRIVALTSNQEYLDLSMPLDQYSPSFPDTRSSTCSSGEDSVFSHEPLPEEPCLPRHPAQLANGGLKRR
Chain of p70S6K (P23443 whole entry): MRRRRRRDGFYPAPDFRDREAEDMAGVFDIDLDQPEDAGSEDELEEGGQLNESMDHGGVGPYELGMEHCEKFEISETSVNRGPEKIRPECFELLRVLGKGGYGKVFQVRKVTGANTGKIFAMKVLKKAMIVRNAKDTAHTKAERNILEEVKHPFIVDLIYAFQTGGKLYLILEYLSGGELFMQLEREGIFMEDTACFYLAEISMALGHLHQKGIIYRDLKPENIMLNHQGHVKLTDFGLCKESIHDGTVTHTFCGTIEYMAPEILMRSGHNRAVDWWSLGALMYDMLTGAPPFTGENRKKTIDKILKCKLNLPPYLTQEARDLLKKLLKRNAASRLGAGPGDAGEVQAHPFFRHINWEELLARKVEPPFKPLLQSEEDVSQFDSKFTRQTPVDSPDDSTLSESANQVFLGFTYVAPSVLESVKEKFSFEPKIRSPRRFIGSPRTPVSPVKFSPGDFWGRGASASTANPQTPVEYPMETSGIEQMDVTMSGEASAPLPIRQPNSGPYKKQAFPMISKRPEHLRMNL
Chain of ZAK (Q9NYL2 whole entry): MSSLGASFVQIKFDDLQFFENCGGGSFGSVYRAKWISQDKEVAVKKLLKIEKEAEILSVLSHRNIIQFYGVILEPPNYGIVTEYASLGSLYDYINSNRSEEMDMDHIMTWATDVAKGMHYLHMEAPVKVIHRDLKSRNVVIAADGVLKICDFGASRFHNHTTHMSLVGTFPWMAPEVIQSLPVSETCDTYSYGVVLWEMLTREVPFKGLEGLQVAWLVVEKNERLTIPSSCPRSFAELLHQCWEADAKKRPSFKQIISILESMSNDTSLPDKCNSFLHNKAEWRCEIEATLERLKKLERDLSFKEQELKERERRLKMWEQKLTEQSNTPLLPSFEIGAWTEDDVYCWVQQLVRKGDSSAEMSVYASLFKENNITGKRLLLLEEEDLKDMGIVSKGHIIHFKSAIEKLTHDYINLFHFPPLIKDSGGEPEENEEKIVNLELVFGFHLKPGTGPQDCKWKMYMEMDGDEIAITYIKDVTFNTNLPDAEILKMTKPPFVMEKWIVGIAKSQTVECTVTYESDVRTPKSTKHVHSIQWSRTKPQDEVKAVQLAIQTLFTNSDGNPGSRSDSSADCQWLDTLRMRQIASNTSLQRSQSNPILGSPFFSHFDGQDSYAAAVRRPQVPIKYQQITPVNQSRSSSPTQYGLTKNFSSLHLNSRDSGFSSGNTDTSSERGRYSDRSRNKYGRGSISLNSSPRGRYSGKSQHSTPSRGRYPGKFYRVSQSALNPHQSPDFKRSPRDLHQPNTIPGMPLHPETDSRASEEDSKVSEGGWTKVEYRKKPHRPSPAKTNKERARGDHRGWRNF

**Q.** How did the Kd (FGFR1) turn out when CN1CCN(Cc2ccc(Nc3ncc(Cl)c(Nc4ccccc4S(=O)(=O)N(C)C)n3)cc2)CC1 [TP-0903] was run?
**A.** Its Kd is 21 nM.

**Q.** And the inhibition at 0.1 µM (RAF1)?
**A.** The inhibition at 0.1 µM was 7%.

**Q.** And the inhibition at 0.1 µM (p70S6K)?
**A.** Its inhibition at 0.1 µM is 6.3%.

**Q.** And the Kd (GCK)?
**A.** Its Kd is 1.8 nM.

**Q.** And the inhibition at 0.1 µM (LATS1; labeling site Lys1, peptide ALYATKTLR)?
**A.** The inhibition at 0.1 µM was 11.6%.

**Q.** And the inhibition at 0.1 µM (LATS1; labeling site Lys2, peptide DIKPDNILIDR)?
**A.** The inhibition at 0.1 µM was 7.9%.

**Q.** What about the inhibition at 0.1 µM (ZAK) of the same compound?
**A.** The inhibition at 0.1 µM was 5.3%.

**Q.** And the Inhibition (MAP4K3)?
**A.** The Inhibition was 64.9%.
